Assay results taken from ChEMBL document CHEMBL1201862, “PubChem BioAssay data set” (2004).
Activity calls are given as the source filed them.

Assays:
Paired box protein Pax-8 = Paired box protein Pax-8 (Homo sapiens, UniProt Q06710); assay: PAX8 transcriptional activity inhibition in RMG-I – RMG-I cells, luciferase, cherry-pick, dose response (AID 687027); type: functional, cell-based;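 note: luciferase reporter driven by Pax8 target thyroperoxidase promoter measured by SteadyGlo luminescence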
[1] = OVCAR8 cell viability loss – plate reader, dry powder samples, PAX8 project, dose response (AID 743197); type: functional, cell-based; conditions: OVCAR-8
Cytochrome P450 1A2 = molecular target: T1, Cytochrome P450 1A2 (Homo sapiens, UniProt P05177);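 note: PubChem cytochrome P450 panel assay, CYP1A2 panel member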
T1 sequence (P05177 whole entry): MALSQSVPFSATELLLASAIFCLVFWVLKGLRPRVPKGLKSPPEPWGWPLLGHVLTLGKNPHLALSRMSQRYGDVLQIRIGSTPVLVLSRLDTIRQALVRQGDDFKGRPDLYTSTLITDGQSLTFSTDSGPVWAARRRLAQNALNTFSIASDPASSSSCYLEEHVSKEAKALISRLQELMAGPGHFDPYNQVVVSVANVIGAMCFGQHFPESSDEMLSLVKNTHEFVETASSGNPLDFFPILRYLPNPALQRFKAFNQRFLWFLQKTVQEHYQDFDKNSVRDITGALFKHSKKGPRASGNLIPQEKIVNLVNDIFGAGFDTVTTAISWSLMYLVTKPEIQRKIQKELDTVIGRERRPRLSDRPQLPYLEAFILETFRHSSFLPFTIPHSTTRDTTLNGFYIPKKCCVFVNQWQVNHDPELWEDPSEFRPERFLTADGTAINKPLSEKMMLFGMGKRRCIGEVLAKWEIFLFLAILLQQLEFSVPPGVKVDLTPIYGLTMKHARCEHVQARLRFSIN

[2] = microbe, parasite or virus in culture; type: functional; conditions: Mycobacterium tuberculosis
[3] = molecular target: FAD-linked sulfhydryl oxidase ALR (Homo sapiens, UniProt P55789); assay: ALR-catalysed DTT oxidation blockers – biochemical, H2O2 detection, luminescence, cherry-pick, dose response (AID 493248)
FAD-linked sulfhydryl oxidase ALR, sequence (P55789 whole entry): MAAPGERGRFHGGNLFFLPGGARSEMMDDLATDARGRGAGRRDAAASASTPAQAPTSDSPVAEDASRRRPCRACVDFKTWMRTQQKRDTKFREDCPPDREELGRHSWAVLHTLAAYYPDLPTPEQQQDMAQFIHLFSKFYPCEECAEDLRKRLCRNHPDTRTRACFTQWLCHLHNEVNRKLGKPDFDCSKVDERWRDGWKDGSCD

[4] = molecular target: T2, Rac GTPase-activating protein 1 (Homo sapiens, UniProt Q9H0H5); assay: blockers of MgcRacGAP-driven Rac1 GTP hydrolysis – biochemical, ADP Hunter fluorescence, primary and confirmatory, confirmation (AID 624330); type: functional
T2 sequence (Q9H0H5 whole entry): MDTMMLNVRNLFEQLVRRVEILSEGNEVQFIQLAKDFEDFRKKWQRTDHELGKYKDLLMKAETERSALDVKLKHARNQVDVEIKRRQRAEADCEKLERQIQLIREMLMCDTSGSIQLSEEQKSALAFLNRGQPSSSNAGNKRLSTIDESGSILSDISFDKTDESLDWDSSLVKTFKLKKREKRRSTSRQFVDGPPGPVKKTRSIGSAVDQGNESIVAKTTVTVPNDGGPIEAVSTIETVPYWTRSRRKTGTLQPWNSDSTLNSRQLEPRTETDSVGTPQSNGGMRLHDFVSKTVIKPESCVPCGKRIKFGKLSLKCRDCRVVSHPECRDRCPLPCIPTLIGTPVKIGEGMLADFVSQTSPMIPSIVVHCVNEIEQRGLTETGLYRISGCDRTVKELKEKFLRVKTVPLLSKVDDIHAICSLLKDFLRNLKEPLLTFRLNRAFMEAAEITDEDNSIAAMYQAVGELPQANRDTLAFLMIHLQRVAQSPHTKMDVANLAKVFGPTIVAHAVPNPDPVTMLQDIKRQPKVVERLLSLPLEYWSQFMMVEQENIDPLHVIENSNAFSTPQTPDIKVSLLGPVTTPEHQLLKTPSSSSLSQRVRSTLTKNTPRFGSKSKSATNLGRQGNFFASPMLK

[5] = NIH3T3 cell viability loss – ATP luminescence, mouse fibroblasts, counter-screen, dose response (AID 2010); type: functional, cell-based;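 note: cells exposed to compound for about 90 hours before reading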
[6] = Trypanosoma cruzi growth suppression in host cells – NIH3T3 host cells, beta-gal luminescence, confirmation (AID 2044); type: functional, cell-based;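 note: intracellular parasites grown in NIH/3T3 mouse fibroblasts as host cells; luminescent beta-galactosidase reporter signal from transgenic T. cruzi replicating inside host cells; inhibitors lower the luminescence signal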
[7] = molecular target: Induced myeloid leukemia cell differentiation protein Mcl-1 (Homo sapiens, UniProt Q07820); type: functional
Induced myeloid leukemia cell differentiation protein Mcl-1, sequence (Q07820 whole entry): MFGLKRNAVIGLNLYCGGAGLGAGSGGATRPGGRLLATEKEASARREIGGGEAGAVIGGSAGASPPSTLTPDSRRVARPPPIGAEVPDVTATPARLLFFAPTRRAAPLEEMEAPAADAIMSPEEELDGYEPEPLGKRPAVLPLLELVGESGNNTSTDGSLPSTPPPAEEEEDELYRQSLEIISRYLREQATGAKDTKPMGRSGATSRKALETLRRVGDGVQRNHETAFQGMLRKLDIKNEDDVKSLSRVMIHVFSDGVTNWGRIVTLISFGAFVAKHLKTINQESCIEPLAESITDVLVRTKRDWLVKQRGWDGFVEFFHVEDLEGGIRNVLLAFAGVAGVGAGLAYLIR

[8] = P. falciparum Dd2 growth inhibitors, dose response, SYBR Green, cherry-picked samples (AID 1159567); type: functional, cell-based
[9] = molecular target: Voltage-dependent T-type calcium channel subunit alpha-1H (Homo sapiens, UniProt O95180); type: functional;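 note: channel activity triggered by adding a high calcium stimulation buffer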
Voltage-dependent T-type calcium channel subunit alpha-1H, sequence (O95180 whole entry): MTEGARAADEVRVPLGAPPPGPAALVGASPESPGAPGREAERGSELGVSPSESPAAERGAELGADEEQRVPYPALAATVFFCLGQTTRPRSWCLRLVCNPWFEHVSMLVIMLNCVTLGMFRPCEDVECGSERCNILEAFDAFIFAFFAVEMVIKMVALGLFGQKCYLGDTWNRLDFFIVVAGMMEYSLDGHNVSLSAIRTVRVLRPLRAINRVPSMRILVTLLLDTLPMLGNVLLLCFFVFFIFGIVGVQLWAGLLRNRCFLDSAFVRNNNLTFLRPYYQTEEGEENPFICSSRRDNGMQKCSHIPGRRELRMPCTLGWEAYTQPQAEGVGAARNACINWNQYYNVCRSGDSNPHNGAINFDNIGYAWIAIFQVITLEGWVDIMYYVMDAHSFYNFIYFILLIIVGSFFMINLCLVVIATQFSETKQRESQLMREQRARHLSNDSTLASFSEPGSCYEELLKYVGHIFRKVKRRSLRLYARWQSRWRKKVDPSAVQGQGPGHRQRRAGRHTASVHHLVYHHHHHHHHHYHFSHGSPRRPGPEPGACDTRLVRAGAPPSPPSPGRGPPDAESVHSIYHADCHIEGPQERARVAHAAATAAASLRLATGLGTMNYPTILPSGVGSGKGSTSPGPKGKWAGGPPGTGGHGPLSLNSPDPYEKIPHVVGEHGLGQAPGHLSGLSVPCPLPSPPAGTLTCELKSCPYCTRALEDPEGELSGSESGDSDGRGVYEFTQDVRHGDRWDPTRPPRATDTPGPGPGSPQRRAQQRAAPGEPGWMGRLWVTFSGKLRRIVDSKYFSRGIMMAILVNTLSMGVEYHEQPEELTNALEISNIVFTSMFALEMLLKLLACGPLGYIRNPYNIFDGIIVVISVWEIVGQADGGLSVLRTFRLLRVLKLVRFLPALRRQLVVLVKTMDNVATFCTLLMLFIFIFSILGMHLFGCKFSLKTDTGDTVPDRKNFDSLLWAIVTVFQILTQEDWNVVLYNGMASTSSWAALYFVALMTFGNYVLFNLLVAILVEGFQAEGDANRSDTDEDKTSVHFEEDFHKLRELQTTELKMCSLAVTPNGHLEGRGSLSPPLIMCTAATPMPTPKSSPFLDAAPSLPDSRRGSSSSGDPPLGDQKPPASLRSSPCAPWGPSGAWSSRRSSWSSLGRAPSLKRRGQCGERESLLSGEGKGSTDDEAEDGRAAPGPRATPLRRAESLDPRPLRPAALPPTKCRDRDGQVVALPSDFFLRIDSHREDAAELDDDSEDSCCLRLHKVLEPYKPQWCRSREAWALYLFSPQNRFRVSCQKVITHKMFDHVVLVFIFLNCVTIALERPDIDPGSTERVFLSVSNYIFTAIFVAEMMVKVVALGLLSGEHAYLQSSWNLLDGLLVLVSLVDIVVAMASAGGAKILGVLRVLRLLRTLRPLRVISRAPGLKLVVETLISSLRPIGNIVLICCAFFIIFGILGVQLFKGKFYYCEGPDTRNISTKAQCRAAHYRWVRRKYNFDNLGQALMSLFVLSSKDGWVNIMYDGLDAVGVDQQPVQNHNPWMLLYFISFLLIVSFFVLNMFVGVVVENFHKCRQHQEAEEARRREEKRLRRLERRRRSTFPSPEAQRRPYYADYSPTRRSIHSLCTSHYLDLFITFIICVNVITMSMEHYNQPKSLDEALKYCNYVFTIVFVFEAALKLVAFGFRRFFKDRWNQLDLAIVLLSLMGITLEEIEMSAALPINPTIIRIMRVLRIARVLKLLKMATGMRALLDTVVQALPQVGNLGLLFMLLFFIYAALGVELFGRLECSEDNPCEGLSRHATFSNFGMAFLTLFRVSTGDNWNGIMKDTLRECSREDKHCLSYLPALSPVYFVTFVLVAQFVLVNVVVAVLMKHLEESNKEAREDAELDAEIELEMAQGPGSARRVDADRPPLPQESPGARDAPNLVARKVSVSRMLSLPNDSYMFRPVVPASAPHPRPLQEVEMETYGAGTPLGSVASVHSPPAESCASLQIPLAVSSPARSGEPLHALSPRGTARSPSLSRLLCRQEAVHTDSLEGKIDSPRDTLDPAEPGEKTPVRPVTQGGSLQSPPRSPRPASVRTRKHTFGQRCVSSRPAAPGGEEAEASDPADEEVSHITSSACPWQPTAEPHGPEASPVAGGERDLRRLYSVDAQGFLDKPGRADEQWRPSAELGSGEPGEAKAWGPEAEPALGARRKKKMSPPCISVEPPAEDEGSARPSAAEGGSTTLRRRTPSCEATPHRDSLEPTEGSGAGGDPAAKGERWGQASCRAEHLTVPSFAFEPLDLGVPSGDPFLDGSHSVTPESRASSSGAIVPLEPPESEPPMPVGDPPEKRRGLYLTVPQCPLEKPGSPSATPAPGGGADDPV

[10] = fluconazole-exposed Candida albicans growth modulators – fluorescence, retest, confirmation (AID 2467); type: functional, cell-based
[11] = tested on: Streptococcus sp. 'group A'; assay: Streptococcus pyogenes SK(-)GAS viability under kanamycin – luminescence, BacTiterGlo, confirmation, counter-screen for streptokinase expression inhibitor project, dose response (AID 1900); type: functional, organism-based
[12] = NIH-3T3 fibroblast cytotoxicity, dose response, cytotoxicity control, cell-based, fluorescence, Alamar Blue, secondary assay (AID 2327); type: functional;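 note: NIH-3T3 mouse fibroblasts cultured with fluconazole at 8 µg/mL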
Streptococcus = assay: GAS UMAA2166 growth inhibition – luminescence, BacTiterGlo, counter-screen for streptokinase expression inhibitor project, dose response (AID 1915); type: functional, organism-based;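 note: potency for reduction of bacterial viability or growth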
Nonstructural protein 1 = Nonstructural protein 1 (Influenza A virus, UniProt Q194T2); type: functional, Influenza A virus (A/California/07/2009(H1N1))
Nonstructural protein 1, sequence (Q194T2 whole entry): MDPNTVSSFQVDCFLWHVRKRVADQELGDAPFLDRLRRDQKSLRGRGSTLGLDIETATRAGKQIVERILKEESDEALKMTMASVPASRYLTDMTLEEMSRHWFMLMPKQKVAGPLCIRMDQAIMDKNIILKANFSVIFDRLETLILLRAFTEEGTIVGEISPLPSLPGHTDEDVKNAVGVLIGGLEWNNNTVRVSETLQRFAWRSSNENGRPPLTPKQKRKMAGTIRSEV

INS1 = assay: INS-1E survival protection against cytokine death – cell-based, luminescence, retest, dose response (AID 449756); type: functional; conditions: Rattus norvegicus;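 note: cell death triggered by IL-1 beta plus TNF-alpha plus IFN-gamma mixture; protective hits raise ATP signal compared with cytokine alone wells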
[13] = molecular target: T3, Heat shock factor protein 1 (Mus musculus, UniProt P38532); assay: decrease of HSF1-responsive luciferase luminescence – cell-based, NIH3T3, dose retest, confirmation (AID 2382); type: functional;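 note: NIH3T3 fibroblasts with HSF1-driven luciferase reporter stressed by proteasome inhibitor MG132; luminescence from HSF1-driven luciferase expression after 8 hours of MG132 stress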
T3 sequence (P38532 whole entry): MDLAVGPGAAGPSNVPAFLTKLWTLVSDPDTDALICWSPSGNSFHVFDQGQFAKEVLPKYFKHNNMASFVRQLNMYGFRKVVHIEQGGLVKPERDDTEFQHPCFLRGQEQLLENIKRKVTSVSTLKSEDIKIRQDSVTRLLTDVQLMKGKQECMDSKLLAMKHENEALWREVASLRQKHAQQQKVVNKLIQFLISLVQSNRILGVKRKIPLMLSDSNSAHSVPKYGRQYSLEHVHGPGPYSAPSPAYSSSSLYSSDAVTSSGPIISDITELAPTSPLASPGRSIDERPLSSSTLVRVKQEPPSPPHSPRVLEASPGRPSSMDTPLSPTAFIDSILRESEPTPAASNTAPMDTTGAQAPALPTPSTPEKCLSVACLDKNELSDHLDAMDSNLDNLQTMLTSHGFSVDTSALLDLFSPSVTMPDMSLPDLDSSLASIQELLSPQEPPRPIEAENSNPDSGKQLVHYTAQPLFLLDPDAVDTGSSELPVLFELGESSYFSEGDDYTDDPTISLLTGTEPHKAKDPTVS

[14] = molecular target: T4, Polyadenylate-binding protein 1 (Homo sapiens, UniProt P11940); assay: MLLE domain peptide-binding blockers, IC50 – biochemical, fluorescence polarization, FITC-PAM2 peptide, dose response (AID 602259); type: functional; conditions: read-out: IC50_Mean
T4 sequence (P11940 whole entry, the tested form may be a part): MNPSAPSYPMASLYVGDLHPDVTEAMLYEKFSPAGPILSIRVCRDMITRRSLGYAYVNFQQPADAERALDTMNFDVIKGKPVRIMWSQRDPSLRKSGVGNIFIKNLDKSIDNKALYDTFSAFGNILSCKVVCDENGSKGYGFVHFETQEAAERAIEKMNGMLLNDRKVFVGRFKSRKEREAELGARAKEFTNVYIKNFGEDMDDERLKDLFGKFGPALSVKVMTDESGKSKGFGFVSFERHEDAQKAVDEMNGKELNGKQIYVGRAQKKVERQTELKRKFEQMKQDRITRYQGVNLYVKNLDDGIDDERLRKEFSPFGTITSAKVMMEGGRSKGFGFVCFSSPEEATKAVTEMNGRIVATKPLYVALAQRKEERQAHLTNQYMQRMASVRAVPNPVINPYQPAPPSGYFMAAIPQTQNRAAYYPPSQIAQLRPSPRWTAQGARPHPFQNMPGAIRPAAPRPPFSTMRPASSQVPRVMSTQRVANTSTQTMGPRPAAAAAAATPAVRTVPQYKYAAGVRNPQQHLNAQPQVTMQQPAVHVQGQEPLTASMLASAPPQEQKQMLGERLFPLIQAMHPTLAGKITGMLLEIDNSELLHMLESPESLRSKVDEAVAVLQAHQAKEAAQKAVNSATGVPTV

[15] = molecular target: T4, Polyadenylate-binding protein 1; assay: MLLE binding blockers, Cy5 peptide tracer – biochemical, fluorescence polarization, Cy5-PAM2 peptide, secondary, miRNA deadenylation inhibitor project, dose response (AID 602260); type: functional; conditions: read-out: IC50_Mean
H9c2 = assay: cells; type: functional, cell-based; conditions: Rattus norvegicus, H9c2, Myocardium;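 note: confirmatory concentration-response retest of ultra-high-throughput screening hits for modulation of myocardial damage; cell death induced by hydrogen peroxide oxidative stress; compound pretreatment for 60 min then peroxide exposure for 2 h; potency is for protecting the cells against peroxide damage rather than for killing them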
[16] = Luminescence Cell-Based Dose Response HTS to Identify Activators of Luciferase Translation or Activity in H4 […] Cells. [Related pubchem assays: 1829 (Project Summary), 1814 (Primary HTS)]; type: functional
[17] = Luminescence Cell-Based Dose Confirmation HTS to Identify Activators of 5'UTR Stem-Loop Driven Alpha-Synuclein mRNA Translation in H4 Neuroglioblastoma Cells. [Related pubchem assays: 1829 (Project Summary), 1814 (Primary HTS)]; type: functional
H4 = assay: Luminescence Cell-Based Dose Response HTS to Identify Activators of 5'UTR Stem-Loop Driven Prion Protein mRNA Translation in H4 Neuroglioblastoma Cells. [Related pubchem assays: 1829 (Project Summary), 1814 (Primary HTS)]; type: functional; conditions: Homo sapiens

Paired box protein Pax-8, sequence (Q06710 whole entry): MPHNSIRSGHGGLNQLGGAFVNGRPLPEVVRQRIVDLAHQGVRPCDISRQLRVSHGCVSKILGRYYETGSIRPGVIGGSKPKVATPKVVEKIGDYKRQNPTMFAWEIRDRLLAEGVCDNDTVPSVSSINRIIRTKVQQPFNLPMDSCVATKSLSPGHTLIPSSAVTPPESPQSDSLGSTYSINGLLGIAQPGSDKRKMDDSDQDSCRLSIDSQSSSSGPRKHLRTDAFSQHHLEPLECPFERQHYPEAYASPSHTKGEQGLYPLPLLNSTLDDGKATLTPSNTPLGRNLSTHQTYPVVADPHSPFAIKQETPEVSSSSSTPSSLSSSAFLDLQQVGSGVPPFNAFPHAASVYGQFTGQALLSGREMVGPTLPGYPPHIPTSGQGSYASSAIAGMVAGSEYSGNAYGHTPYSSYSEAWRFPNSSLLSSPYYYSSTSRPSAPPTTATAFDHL

O=C(C[C@H]1C[C@@H]2c3cc(NC(=O)Nc4ccc(C(F)(F)F)cc4)ccc3O[C@@H]2[C@@H](CO)O1)NCCc1ccccc1
AC50 (Paired box protein Pax-8): 2.07 µM (active)
AC50 [1]: 60.1 µM (active)

Cc1cc(C(=O)N[C@H](c2ccccc2)[C@@]2(C)C[C@@H]2[C@@H](C)C(=O)Nc2ccc3ccccc3c2)n(C)n1
AC50 (Cytochrome P450 1A2): 20 µM (inconclusive)
CC50 [2]: > 40 µM (active)

O=C(O)CCCCCNc1nc(S)nc2ccccc12
AC50 [3]: 7.38 µM (active)

C[C@@H]1CCCCO[C@@H](CN(C)Cc2ccccc2)[C@@H](C)CN([C@@H](C)CO)C(=O)c2cc(NS(=O)(=O)c3ccc(Cl)cc3)ccc2O1
AC50 (Paired box protein Pax-8): 5.43 µM (active)
AC50 [1]: 63.2 µM (active)

CC(=O)N1CCN(c2ccc(NCc3ccc(Br)o3)cc2)CC1
AC50 [3]: 0.743 µM (active)
IC50 [4]: 13.7 µM (active)

Nc1c(N(CCC2=CCCCC2)C(=O)c2ccc([N+](=O)[O-])o2)c(=O)[nH]c(=O)n1Cc1ccccc1
EC50 [5]: > 60 µM (not active)
EC50 [6]: 0.345 µM (active)
CC50 [2]: > 40 µM (active)

Cc1ccc2nc(-c3cccc(S(=O)(=O)N(C)C)c3)cn2c1
AC50 [3]: 0.045 µM (active)

COc1ccc(C(=O)n2nc(C)c(Br)c2C)cc1
IC50 [7]: 2.84 µM (not active)

O=[N+]([O-])c1c(O)nc(/C=C\c2cccc(Cl)c2)nc1O
AC50 [3]: 0.737 µM (active)

O=C(C1CC1)N1CC(=O)N2[C@H](CO)[C@@H](c3ccc(C#CCc4ccccc4)cc3)[C@@H]2C1
AC50 [8]: 5.44 µM (active)

COc1ccc(C(C(O)C(=O)c2c[nH]c3ccccc23)N2CCN(c3ccc(OC)cc3)CC2)cc1 (stereo not drawn)
CC50 [2]: > 40 µM (active)

COc1cccc(N2CCN(C3CC(=O)N(c4ccc(Cl)c(Cl)c4)C3=O)CC2)c1 (stereo not drawn)
EC50 [9]: 6.84 µM (active)

CC1CCN(C(=O)CSCC(=O)Nc2nc(-c3cccs3)cs2)CC1
EC50 [9]: 2.23 µM (active)

Cc1ccccc1CSCCNC(=O)CCSc1ccccc1
EC50 [9]: 3.24 µM (active)

COc1ccc2nc(NC(=O)C3CCCN3S(=O)(=O)c3ccc(C)cc3)sc2c1 (stereo not drawn)
EC50 [9]: 57.5 µM (active)

O=C(c1ccc(F)cc1)N1CC(=O)N2[C@H](CO)[C@@H](c3ccc(/C=C/c4ccccc4)cc3)[C@@H]2C1
AC50 [8]: 3.9 µM (active)

CCC(C)(C)n1nnnc1C(c1ccncc1)N1CCC(Cc2ccccc2)CC1 (stereo not drawn)
EC50 [5]: > 60 µM (not active)
EC50 [6]: 1.06 µM (active)
EC50 [9]: 9.75 µM (active)

COc1ccc2c3c(n(C)c2c1)[C@H](CO)N(C(=O)Nc1ccc(F)cc1)CC31CCN(C(=O)c2cccnc2)CC1
AC50 [8]: 4.52 µM (active)

Cc1ccc(O)c(C(=O)CC(=O)c2ccccc2Cl)c1
EC50 [10]: 2.52 µM (active)
EC50 [11]: 4.15 µM (active)
EC50 [12]: > 160 µM (inactive)
EC50 (Streptococcus): 9.81 µM (active)
CC50 [2]: 24.4 µM (active)

CN(C)c1ccc(N=Nc2cccc(F)c2)cc1
IC50 (Nonstructural protein 1): 25 µM (active)

O=C(N/N=C/c1ccccc1O)C(=O)Nc1ccccn1
IC50 (Nonstructural protein 1): 10.8 µM (active)

COc1cc(CN2CC3(CN(C(=O)CN4CCOCC4)C3)c3c(n(C)c4cc(OC)ccc34)[C@@H]2CO)cc(OC)c1
AC50 [8]: 6.16 µM (active)

C[C@H](CO)N1C[C@H](C)[C@H](CN(C)C(=O)Nc2ccc(F)cc2)Oc2cc(/C=C/c3ccccc3)ccc2S1(=O)=O
AC50 [8]: 5.46 µM (active)

C=C(C)C(=O)OCC(O)COc1ccc(C(C)(C)c2ccc(OCC(O)COC(=O)C(=C)C)cc2)cc1 (stereo not drawn)
AC50 (INS1): 15 µM (active)
CC50 [2]: > 40 µM (active)

CC(C)n1cc(/C=N/Nc2ccc(C(=O)O)cc2)c2ccccc21
AC50 [3]: 0.192 µM (active)
EC50 [13]: < 0.16 µM (active)

CC(=O)Nc1ccc(S(=O)(=O)NC(C)C(=O)NC(C)c2ccccc2)cc1 (stereo not drawn)
AC50 [3]: 0.083 µM (active)
IC50 [14]: > 66 µM (inactive)
IC50 [15]: > 66 µM (inactive)

CCOC(=O)c1cc(C)nc(Sc2ccc(C)cc2)c1C#N
CC50 [2]: > 40 µM (active)

C/C(=N\Nc1nnc2c3ccccc3n(C)c2n1)c1ccc(C)o1
IC50 (H9c2): > 79 µM (inactive)
EC50 [16]: 71.3 µM (active)
EC50 [17]: 17.5 µM (active)
EC50 (H4): > 120 µM (not active)

O=C(CSc1ccc(-c2ccccn2)nn1)c1ccccc1
IC50 (Nonstructural protein 1): 10.9 µM (active)
EC50 [16]: 8.47 µM (active)
EC50 [17]: > 120 µM (not active)
EC50 (H4): 56.6 µM (active)

O=C(NCc1nnc(S)n1-c1ccc(Br)cc1)c1ccc(S(=O)(=O)N2CCCC2)cc1
AC50 [3]: 6.96 µM (active)

Cc1ccc(NC(=O)CSCC(=O)N2c3ccccc3CCc3ccccc32)cc1
EC50 [9]: 4.65 µM (active)

Oc1ccccc1N1CCN(c2nnnn2-c2ccccc2)CC1
AC50 [3]: 7.83 µM (active)

Cc1c(NN=C2C(=O)NC(=O)NC2=O)c(=O)n(-c2ccccc2)n1C
IC50 (Nonstructural protein 1): 2.12 µM (active)

C[C@H](CO)N1C[C@H](C)[C@H](CN(C)C(=O)c2ccccc2)OCCCC[C@H](C)Oc2ccc(NC(=O)Nc3ccc(C(F)(F)F)cc3)cc2C1=O
AC50 (Paired box protein Pax-8): 5.26 µM (active)
AC50 [1]: > 70 µM (inactive)

Cn1cc(C(=O)c2ccc(Cl)cc2Cl)cc1C(=O)NN=C(N)COc1ccccc1
EC50 [9]: 3.97 µM (active)
